Source: patent publication US6525001B1, “Substituted pyrimidine and pyridine herbicides” (Mid-American Commercialization Corporation, priority 1997, dated 2003)

Key:
Format in all cases: in vivo
[1] = test system: sandbur (Cenchrus echinatus); assay: Test E pre-/postemergence/post directed; design: key: 0 is no injury; 100 is complete control
Source text: (§1) Seeds, tubers, or plant parts of alexandergrass (Brachiaria plantaginea), annual bluegrass (Poa annua), arrowleaf sida (Sida rhombifolia), barnyardgrass (Echinochloa crus-galli), bermudagrass (Cynodon dactylon), citrus (Citrus sinensis), common chickweed (Stellaria media), common purslane (Portulaca oleracea), common ragweed (Ambrosia elatior), common groundsel (Senecio vulgaris), dallisgrass (Paspalum dilatatum), goosegrass (Eleusine indica), green foxtail (Setaria viridis), guineagrass (Panicum maximum), itchgrass (Rottboellia exaltata), johnson grass (Sorghum halepense), kochia (Kochia scoparia), large crabgrass (Digitaria sanguinalis), leafy spurge (Euphorbia esula), pitted morningglory (Ipomoea lacunosa), purple nutsedge (Cyperus rotundus), quackgrass (Agropyron repens), Russian thistle (Salsola kali), sandbur (Cenchrus echinatus), sourgrass (Trichachne insularis), Spanishneedles (Bidens bipinnata), sugarcane (Saccharum officinarum), surinam grass (Brachiaria decumbens) and tall mallow (Malva sylvestris) were planted into greenhouse pots of flats containing greenhouse planting medium. Plant species were grown grown in separate pots or individual compartments. Preemergence applications were made within one day of planting the seed or plant part. Postemergence applications were applied when the plants were in the two to four leaf stage (three to twenty cm).
(§2) Test chemicals were formulated in a non-phytotoxic solvent mixture which included a surfactant and applied preemergence to the soil surface, postemergence to the plants or as a post directed spray to plants and soil at the base of the target species. Untreated control plants and treated plants were placed in the greenhouse and visually evaluated for injury 13 to 21 days after herbicide application. Plant response ratings, summarized in Table E, are based on a 0 to 100 scale where 0 is no injury and 100 is complete control. A dash (−) response means no test result.

[2] = test system: purple nutsedge (Cyperus rotundus); assay: Test E pre-/postemergence/post directed; design: key: 0 is no injury; 100 is complete control
Source text: as §1, §2

[3] = test system: arrowleaf sida (Sida rhombifolia); assay: Test C; design: key: 0 was no effect; 100 was complete control; details: PREEMERGENCE
[4] = test system: common ragweed (Ambrosia elatior); assay: Test C; details: PREEMERGENCE
[5] = test system: fall panicum (Panicum dichotomiflorum); assay: Test C; design: key: 0 was no effect; 100 was complete control; details: PREEMERGENCE
[6] = test system: barnyardgrass (Echinochloa crus-galli); assay: Test C; design: key: 0 was no effect; 100 was complete control; details: PREEMERGENCE
[7] = test system: wild poinsettia (Euphorbia heterophylla); assay: Test C; design: key: 0 was no effect; 100 was complete control; details: PREEMERGENCE
[8] = test system: soybean (Glycine max); assay: Test C; design: key: 0 was no effect; 100 was complete control; details: PREEMERGENCE
[9] = test system: velvetleaf (Abutilon theophrasti); assay: Test C; details: PREEMERGENCE
[10] = test system: ladysthumb smartweed (Polygonum persicaria); assay: Test C; design: key: 0 was no effect; 100 was complete control; details: PREEMERGENCE
[11] = test system: ivyleaf morningglory (Ipomoea hederacea); assay: Test C; design: key: 0 was no effect; 100 was complete control; details: PREEMERGENCE
[12] = test system: eastern black nightshade (Solanum ptycanthum); assay: Test C; details: PREEMERGENCE
[13] = test system: large crabgrass (Digitaria sanguinalis); assay: Test C; design: key: 0 was no effect; 100 was complete control; details: PREEMERGENCE
[14] = test system: hairy beggarticks (Bidens pilosa); assay: Test C; design: key: 0 was no effect; 100 was complete control; details: PREEMERGENCE

With `Cc1cnc(-c2ccc(C(F)(F)F)cc2)nc1Cc1cccc(OC(F)(F)F)c1` [Compound 15] the “Plant response rating, Sandbur” value ([1]; POSTEMERGENCE, Rate 125 g/ha) was 0, the “Plant response rating, Sandbur” value ([1]; POSTEMERGENCE, Rate 250 g/ha) was 0 and the “Plant response rating, Purple nutsedge” value ([2]; POSTEMERGENCE, Rate 125 g/ha) was 0. The “Plant response rating, Purple nutsedge” value ([2]; POSTEMERGENCE, Rate 250 g/ha) was 0, the “Plant response rating, Purple nutsedge” value ([2]; PREEMERGENCE, Rate 32 g/ha) was 0 and the “Plant response rating, Purple nutsedge” value ([2]; PREEMERGENCE, Rate 64 g/ha) was 0. The “Plant response rating, Purple nutsedge” value ([2]; PREEMERGENCE, Rate 125 g/ha) was 0, the “Plant response rating, Purple nutsedge” value ([2]; PREEMERGENCE, Rate 250 g/ha) was 0 and the “Plant response rating, Arrowleaf sida” value ([3]; Rate 35 g/ha) was 80. For the same compound, the “Plant response rating, Arrowleaf sida” value ([3]; Rate 70 g/ha) was 85, the “Plant response rating, Arrowleaf sida” value ([3]; Rate 140 g/ha) was 85 and the “Plant response rating, Common ragweed” value ([4]; Rate 35 g/ha) was 10. For the same compound, the “Plant response rating, Common ragweed” value ([4]; Rate 70 g/ha) was 20, the “Plant response rating, Common ragweed” value ([4]; Rate 140 g/ha) was 75 and the “Plant response rating, Fall panicum” value ([5]; Rate 35 g/ha) was 40. The “Plant response rating, Fall panicum” value ([5]; Rate 70 g/ha) was 80, the “Plant response rating, Fall panicum” value ([5]; Rate 140 g/ha) was 100 and the “Plant response rating, Barnyardgrass” value ([6]; Rate 35 g/ha) was 10. The “Plant response rating, Barnyardgrass” value ([6]; Rate 70 g/ha) was 35, the “Plant response rating, Barnyardgrass” value ([6]; Rate 140 g/ha) was 85 and the “Plant response rating, Wild poinsettia” value ([7]; Rate 35 g/ha) was 0. The “Plant response rating, Wild poinsettia” value ([7]; Rate 70 g/ha) was 0, the “Plant response rating, Wild poinsettia” value ([7]; Rate 140 g/ha) was 20 and the “Plant response rating, Soybean” value ([8]; Rate 35 g/ha) was 0. The “Plant response rating, Soybean” value ([8]; Rate 70 g/ha) was 10, the “Plant response rating, Soybean” value ([8]; Rate 140 g/ha) was 10 and the “Plant response rating, Velvetleaf” value ([9]; Rate 35 g/ha) was 5. For the same compound, the “Plant response rating, Velvetleaf” value ([9]; Rate 70 g/ha) was 20, the “Plant response rating, Velvetleaf” value ([9]; Rate 140 g/ha) was 70 and the “Plant response rating, Ladysthumb” value ([10]; Rate 35 g/ha) was 0. For the same compound, the “Plant response rating, Ladysthumb” value ([10]; Rate 70 g/ha) was 20, the “Plant response rating, Ladysthumb” value ([10]; Rate 140 g/ha) was 90 and the “Plant response rating, I. morningglory” value ([11]; Rate 35 g/ha) was 15. For the same compound, the “Plant response rating, I. morningglory” value ([11]; Rate 70 g/ha) was 20, the “Plant response rating, I. morningglory” value ([11]; Rate 140 g/ha) was 65 and the “Plant response rating, E. blacknightsh” value ([12]; Rate 35 g/ha) was 70. For the same compound, the “Plant response rating, E. blacknightsh” value ([12]; Rate 70 g/ha) was 95, the “Plant response rating, E. blacknightsh” value ([12]; Rate 140 g/ha) was 95 and the “Plant response rating, Large crabgrass” value ([13]; Rate 35 g/ha) was 100. For the same compound, the “Plant response rating, Large crabgrass” value ([13]; Rate 70 g/ha) was 100 and the “Plant response rating, Large crabgrass” value ([13]; Rate 140 g/ha) was 100.
For `Cc1cnc(-n2ccc(C(F)(F)F)n2)nc1Cc1cccc(OC(F)(F)F)c1` [Compound 42], the “Plant response rating, Sandbur” value ([1]; PREEMERGENCE, Rate 32 g/ha) was 0, the “Plant response rating, Purple nutsedge” value ([2]; PREEMERGENCE, Rate 32 g/ha) was 20 and the “Plant response rating, Purple nutsedge” value ([2]; PREEMERGENCE, Rate 64 g/ha) was 30. For the same compound, the “Plant response rating, Purple nutsedge” value ([2]; PREEMERGENCE, Rate 125 g/ha) was 30, the “Plant response rating, Purple nutsedge” value ([2]; PREEMERGENCE, Rate 250 g/ha) was 30 and the “Plant response rating, H. beggarticks” value ([14]; Rate 35 g/ha) was 0. For the same compound, the “Plant response rating, H. beggarticks” value ([14]; Rate 140 g/ha) was 90, the “Plant response rating, Arrowleaf sida” value ([3]; Rate 35 g/ha) was 95 and the “Plant response rating, Arrowleaf sida” value ([3]; Rate 70 g/ha) was 95. The “Plant response rating, Arrowleaf sida” value ([3]; Rate 140 g/ha) was 100, the “Plant response rating, Common ragweed” value ([4]; Rate 35 g/ha) was 20 and the “Plant response rating, Common ragweed” value ([4]; Rate 70 g/ha) was 85. For the same compound, the “Plant response rating, Common ragweed” value ([4]; Rate 140 g/ha) was 85, the “Plant response rating, Fall panicum” value ([5]; Rate 35 g/ha) was 50 and the “Plant response rating, Fall panicum” value ([5]; Rate 70 g/ha) was 85. For the same compound, the “Plant response rating, Fall panicum” value ([5]; Rate 140 g/ha) was 100, the “Plant response rating, Barnyardgrass” value ([6]; Rate 35 g/ha) was 5 and the “Plant response rating, Barnyardgrass” value ([6]; Rate 70 g/ha) was 10. For the same compound, the “Plant response rating, Barnyardgrass” value ([6]; Rate 140 g/ha) was 100, the “Plant response rating, Wild poinsettia” value ([7]; Rate 35 g/ha) was 25 and the “Plant response rating, Wild poinsettia” value ([7]; Rate 70 g/ha) was 30. The “Plant response rating, Wild poinsettia” value ([7]; Rate 140 g/ha) was 85, the “Plant response rating, Soybean” value ([8]; Rate 35 g/ha) was 0 and the “Plant response rating, Soybean” value ([8]; Rate 70 g/ha) was 5. The “Plant response rating, Soybean” value ([8]; Rate 140 g/ha) was 35, the “Plant response rating, Velvetleaf” value ([9]; Rate 35 g/ha) was 40 and the “Plant response rating, Velvetleaf” value ([9]; Rate 70 g/ha) was 80. The “Plant response rating, Velvetleaf” value ([9]; Rate 140 g/ha) was 95, the “Plant response rating, Ladysthumb” value ([10]; Rate 35 g/ha) was 90 and the “Plant response rating, Ladysthumb” value ([10]; Rate 70 g/ha) was 85. For the same compound, the “Plant response rating, Ladysthumb” value ([10]; Rate 140 g/ha) was 95, the “Plant response rating, I. morningglory” value ([11]; Rate 35 g/ha) was 30 and the “Plant response rating, I. morningglory” value ([11]; Rate 70 g/ha) was 70. For the same compound, the “Plant response rating, I. morningglory” value ([11]; Rate 140 g/ha) was 100, the “Plant response rating, E. blacknightsh” value ([12]; Rate 35 g/ha) was 90 and the “Plant response rating, E. blacknightsh” value ([12]; Rate 70 g/ha) was 95. The “Plant response rating, E. blacknightsh” value ([12]; Rate 140 g/ha) was 95, the “Plant response rating, Large crabgrass” value ([13]; Rate 35 g/ha) was 80 and the “Plant response rating, Large crabgrass” value ([13]; Rate 70 g/ha) was 100. For the same compound, the “Plant response rating, Large crabgrass” value ([13]; Rate 140 g/ha) was 100.
